For 17 compounds, DC50 and Emax results are on record in patent publication US12559492B2, “BRAF degraders” (C4 Therapeutics, Inc., priority 2020, dated 2026).

Structures can show the parent of a compound that is named as a salt.

The test concerns the target BRAF^V600E protein (Homo sapiens, UniProt P15056, V600E). Description: HiBiT cellular BRAF V600E degradation assay. In kind it is cell-based. The note with it: 24 h incubation; for DC50: A375.10 cells (HiBiT tag knocked in at N-terminal of BRAF V600E), concentration at which 50% of total cellular BRAF V600E is degraded; for Emax: A375.10 cells, Emax = amount of residual protein remaining in the cell after compound treatment, read-out: HiBit 24 h Emax.

BRAF^V600E protein, sequence (P15056 whole entry V600E): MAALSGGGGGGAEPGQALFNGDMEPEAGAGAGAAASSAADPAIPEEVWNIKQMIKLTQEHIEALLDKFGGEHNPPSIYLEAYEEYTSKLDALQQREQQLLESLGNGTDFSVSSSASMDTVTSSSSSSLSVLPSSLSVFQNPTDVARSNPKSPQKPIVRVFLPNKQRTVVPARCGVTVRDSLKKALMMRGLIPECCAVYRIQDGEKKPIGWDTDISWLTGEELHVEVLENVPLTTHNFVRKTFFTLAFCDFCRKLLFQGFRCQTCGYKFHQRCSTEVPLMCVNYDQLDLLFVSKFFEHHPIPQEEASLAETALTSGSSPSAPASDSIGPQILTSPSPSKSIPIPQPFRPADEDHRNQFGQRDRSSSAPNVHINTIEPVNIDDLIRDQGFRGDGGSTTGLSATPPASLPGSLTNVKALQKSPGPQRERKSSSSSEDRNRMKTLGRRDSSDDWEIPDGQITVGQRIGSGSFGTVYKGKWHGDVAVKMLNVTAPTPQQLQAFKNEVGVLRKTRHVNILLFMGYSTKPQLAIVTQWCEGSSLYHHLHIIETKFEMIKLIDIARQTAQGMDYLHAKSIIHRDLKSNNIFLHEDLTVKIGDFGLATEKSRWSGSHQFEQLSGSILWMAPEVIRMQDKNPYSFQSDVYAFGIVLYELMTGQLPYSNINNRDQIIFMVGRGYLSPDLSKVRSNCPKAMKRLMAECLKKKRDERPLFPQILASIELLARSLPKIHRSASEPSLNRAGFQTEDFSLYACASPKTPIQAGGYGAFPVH

As to `CCN(C)S(=O)(=O)Nc1ccc(F)c(C(=O)c2c[nH]c3ncc(-c4cnc(N5CCN(C(=O)CN6CCC(c7c(F)cc(NC8CCC(=O)NC8=O)cc7F)CC6)CC5)nc4)cc23)c1F` (stereo not shown) [Example 46, 5-[2-[4-[2-[4-[4-[(2,6-dioxo-3-piperidyl)amino]-2,6-difluoro-phenyl]-1-piperidyl]acetyl]piperazin-1-yl]pyrimidin-5-yl]-3-[3-[[ethyl(methyl)sulfamoyl]amino]-2,6-difluoro-benzoyl]-1H-pyrrolo[2,3-b]pyridine], the half-maximal degradation concentration (DC50) stood at 9.1 nM and the maximal effect (Emax) is 7.88%.
The like results for `CCN(C)S(=O)(=O)Nc1ccc(F)c(C(=O)c2c[nH]c3ncc(-c4cc(F)c(N5CCN(C(=O)CC6(O)CCN(c7ccc(NC8CCC(=O)NC8=O)cc7F)CC6)CC5)cc4F)cc23)c1F` (stereo not shown) [Example 221, 5-[4-[4-[2-[1-[4-[(2,6-dioxo-3-piperidyl)amino]-2-fluoro-phenyl]-4-hydroxy-4-piperidyl]acetyl]piperazin-1-yl]-2,5-difluoro-phenyl]-3-[3-[[ethyl(methyl)sulfamoyl]amino]-2,6-difluoro-benzoyl]-1H-pyrrolo[2,3-b]pyridine] were, in that order, 5.65 nM and 9.12%.
The like results for `CCN(C)S(=O)(=O)Nc1ccc(F)c(C(=O)c2c[nH]c3ncc(-c4cnc(N5CCN(C(=O)CN6CC[C@@H](c7ccc(NC8CCC(=O)NC8=O)cc7)C(F)(F)C6)CC5)nc4)cc23)c1F` (stereo partly drawn) [Example 54, 5-[2-[4-[2-[(4S)-4-[4-[(2,6-dioxo-3-piperidyl)amino]phenyl]-3,3-difluoro-1-piperidyl]acetyl]piperazin-1-yl]pyrimidin-5-yl]-3-[3-[[ethyl(methyl)sulfamoyl]amino]-2,6-difluoro-benzoyl]-1H-pyrrolo[2,3-b]pyridine] were, in that order, 4.72 nM and 6.94%.
With `CCN(C)S(=O)(=O)Nc1ccc(F)c(C(=O)c2c[nH]c3ncc(-c4ccc(N5CCC(NCC(=O)N6CCC(c7ccc(NC8CCC(=O)NC8=O)cc7)CC6)CC5)cc4)cc23)c1F` (stereo not shown) [Example A98, 5-[4-[4-[[2-[4-[4-[(2,6-Dioxopiperidin-3-yl)amino]phenyl]piperidin-1-yl]-2-oxoethyl]amino]piperidin-1-yl]phenyl]-3-[3-[[ethyl(methyl)sulfamoyl]amino]-2,6-difluorobenzoyl]-1H-pyrrolo[2,3-b]pyridine; hydrochloride], it took 12 nM to reach half-maximal degradation (DC50) and the Emax worked out at 12%.
The like results for `CCN(C)S(=O)(=O)Nc1ccc(F)c(C(=O)c2c[nH]c3ncc(-c4cnc(N5CCN(C(=O)CC6(O)CCN(c7ccc(N[C@H]8CCC(=O)NC8=O)cc7Cl)CC6)CC5)nc4)cc23)c1F` [Example 206, 5-[2-[4-[2-[1-[2-chloro-4-[[(3S)-2,6-dioxo-3-piperidyl]amino]phenyl]-4-hydroxy-4-piperidyl]acetyl]piperazin-1-yl]pyrimidin-5-yl]-3-[3-[[ethyl(methyl)sulfamoyl]amino]-2,6-difluoro-benzoyl]-1H-pyrrolo[2,3-b]pyridine] were, in that order, 2.28 nM and 6.9%.
Take `CCN(C)S(=O)(=O)Nc1ccc(F)c(C(=O)c2c[nH]c3ncc(-c4ccc(N5CCN(CCN6CCC(c7ccc(OC8CCC(=O)NC8=O)cc7)CC6)C(=O)C5)nc4)cc23)c1F` (stereo not shown) [Example 147, 5-[6-[4-[2-[4-[4-[(2,6-dioxo-3-piperidyl)oxy]phenyl]-1-piperidyl]ethyl]-3-oxo-piperazin-1-yl]-3-pyridyl]-3-[3-[[ethyl(methyl)sulfamoyl]amino]-2,6-difluoro-benzoyl]-1H-pyrrolo[2,3-b]pyridine]: the 50% degradation concentration (DC50) came out at 17.2 nM and the Emax amounted to 14.6%.
Turning to `CCN(C)S(=O)(=O)Nc1ccc(F)c(C(=O)c2c[nH]c3ncc(-c4cnc(N5CCN(C(=O)CN6CC7(C6)CN(c6ccc(NC8CCC(=O)NC8=O)cc6)C7)CC5)nc4)cc23)c1F` (stereo not shown) [Example 49, 5-[2-[4-[2-[2-[4-[(2,6-dioxo-3-piperidyl)amino]phenyl]-2,6-diazaspiro[3.3]heptan-6-yl]acetyl]piperazin-1-yl]pyrimidin-5-yl]-3-[3-[[ethyl(methyl)sulfamoyl]amino]-2,6-difluoro-benzoyl]-1H-pyrrolo[2,3-b]pyridine], half-maximal degradation (DC50) was put at 24.9 nM and the Emax turned out to be 17.5%.
The like results for `CCN(C)S(=O)(=O)Nc1ccc(F)c(C(=O)c2c[nH]c3ncc(-c4ccc(C5CCN(C(=O)CN6CCC(c7ccc(NC8CCC(=O)NC8=O)cc7)CC6)CC5)nc4)cc23)c1F` (stereo not shown) [Example A49, 5-[6-[1-[2-[4-[4-[(2,6-Dioxopiperidin-3-yl)amino]phenyl]piperidin-1-yl]acetyl]piperidin-4-yl]pyridin-3-yl]-3-[3-[[ethyl(methyl)sulfamoyl]amino]-2,6-difluorobenzoyl]-1H-pyrrolo[2,3-b]pyridine] were, in that order, 17 nM and 11%.
Take `CCN(C)S(=O)(=O)Nc1ccc(F)c(C(=O)c2c[nH]c3ncc(-c4ccc(N5CCN(C(=O)CC6(O)CCN(c7ccc(NC8CCC(=O)NC8=O)cn7)CC6)CC5)cc4)cc23)c1F` (stereo not shown) [Example 88, 5-[4-[4-[2-[1-[5-[(2,6-dioxo-3-piperidyl)amino]-2-pyridyl]-4-hydroxy-4-piperidyl]acetyl]piperazin-1-yl]phenyl]-3-[3-[[ethyl(methyl)sulfamoyl]amino]-2,6-difluoro-benzoyl]-1H-pyrrolo[2,3-b]pyridine]: it took 15.7 nM to reach half-maximal degradation (DC50) and the Emax is 22.2%.
Regarding `O=C1CCC(Nc2ccc(N3CCN(CC(=O)N4CCN(c5ccc(-c6cnc7[nH]cc(C(=O)c8c(F)ccc(NS(=O)(=O)N9CCCC9)c8F)c7c6)cn5)CC4)CC3)cc2)C(=O)N1` (stereo not shown) [Example A73, N-[3-[5-[6-[4-[2-[4-[4-[(2,6-Dioxopiperidin-3-yl)amino]phenyl]piperazin-1-yl]acetyl]piperazin-1-yl]pyridin-3-yl]-1H-pyrrolo[2,3-b]pyridine-3-carbonyl]-2,4-difluorophenyl]pyrrolidine-1-sulfonamide], the DC50 turned out to be 6 nM and the Emax amounted to 19%.
Consider `CCN(C)S(=O)(=O)Nc1ccc(F)c(C(=O)c2c[nH]c3ncc(-c4ccc(N5CCC(N(C)C(=O)CN6CCC(c7ccc(NC8CCC(=O)NC8=O)cn7)CC6)CC5)nc4)cc23)c1F` (stereo not shown) [Example A95, 2-[4-[5-[(2,6-Dioxopiperidin-3-yl)amino]pyridin-2-yl]piperidin-1-yl]-N-[1-[5-[3-[3-[[ethyl(methyl)sulfamoyl]amino]-2,6-difluorobenzoyl]-1H-pyrrolo[2,3-b]pyridin-5-yl]pyridin-2-yl]piperidin-4-yl]-N-methylacetamide;hydrochloride], for which it took 11 nM to reach half-maximal degradation (DC50) and the maximum response (Emax) turned out to be 7%.
The like results for `CCN(C)S(=O)(=O)Nc1ccc(F)c(C(=O)c2c[nH]c3ncc(-c4cnc(N5CCN(C(=O)CN6CCC(c7ccc(NC8CCC(=O)NC8=O)c(F)c7)CC6)CC5)nc4)cc23)c1F` (stereo not shown) [Example 29, 5-[2-[4-[2-[4-[4-[(2,6-dioxo-3-piperidyl)amino]-3-fluoro-phenyl]-1-piperidyl]acetyl]piperazin-1-yl]pyrimidin-5-yl]-3-[3-[[ethyl(methyl)sulfamoyl]amino]-2,6-difluoro-benzoyl]-1H-pyrrolo[2,3-b]pyridine] were, in that order, 2.76 nM and 7.67%.
Regarding `CCN(C)S(=O)(=O)Nc1ccc(F)c(C(=O)c2c[nH]c3ncc(-c4ccc(N5CCC(N(C)CC(=O)N6CCC(c7ccc(NC8CCC(=O)NC8=O)cn7)CC6)CC5)nc4)cc23)c1F` (stereo not shown) [Example A101, 5-[6-[4-[[2-[4-[5-[(2,6-Dioxopiperidin-3-yl)amino]pyridin-2-yl]piperidin-1-yl]-2-oxoethyl]-methylamino]piperidin-1-yl]pyridin-3-yl]-3-[3-[[ethyl(methyl)sulfamoyl]amino]-2,6-difluorobenzoyl]-1H-pyrrolo[2,3-b]pyridine; hydrochloride], half-maximal degradation (DC50) was put at 20 nM and the Emax came out at 19%.
As to `CCN(C)S(=O)(=O)Nc1ccc(F)c(C(=O)c2c[nH]c3ncc(-c4ccc(N5CCN(C(=O)CC6(O)CCN(c7ccc(NC8CCC(=O)NC8=O)cc7F)CC6)CC5)nc4)cc23)c1Cl` (stereo not shown) [Example 170, 3-[2-chloro-3-[[ethyl(methyl)sulfamoyl]amino]-6-fluoro-benzoyl]-5-[6-[4-[2-[1-[4-[(2,6-dioxo-3-piperidyl)amino]-2-fluoro-phenyl]-4-hydroxy-4-piperidyl]acetyl]piperazin-1-yl]-3-pyridyl]-1H-pyrrolo[2,3-b]pyridine], it took 4.59 nM to reach half-maximal degradation (DC50) and the maximum response (Emax) was found to be 10.5%.
Consider `O=C1CCC(Nc2ccc(C3CCN(CC(=O)N4CC5(C4)CN(c4ncc(-c6cnc7[nH]cc(C(=O)c8c(F)ccc(NS(=O)(=O)N9CCCC9)c8F)c7c6)cn4)C5)CC3)cc2)C(=O)N1` (stereo not shown) [Example A120, N-[3-[5-[2-[2-[2-[4-[4-[(2,6-Dioxopiperidin-3-yl)amino]phenyl]piperidin-1-yl]acetyl]-2,6-diazaspiro[3.3]heptan-6-yl]pyrimidin-5-yl]-1H-pyrrolo[2,3-b]pyridine-3-carbonyl]-2,4-difluorophenyl]pyrrolidine-1-sulfonamide], for which the DC50 came to 8 nM and the Emax is 8%.
On to `CCN(C)S(=O)(=O)Nc1ccc(F)c(C(=O)c2c[nH]c3ncc(-c4ccc(N5CCN(C(=O)CC6(O)CCN(c7ccc(NC8CCC(=O)NC8=O)cc7F)CC6)CC5)c(Cl)c4)cc23)c1F` (stereo not shown) [Example 180, 5-[3-chloro-4-[4-[2-[1-[4-[(2,6-dioxo-3-piperidyl)amino]-2-fluoro-phenyl]-4-hydroxy-4-piperidyl]acetyl]piperazin-1-yl]phenyl]-3-[3-[[ethyl(methyl)sulfamoyl]amino]-2,6-difluoro-benzoyl]-1H-pyrrolo[2,3-b]pyridine], for which the DC50 is 4.62 nM and the Emax worked out at 8.93%.
As to `CCN(C)S(=O)(=O)Nc1ccc(F)c(C(=O)c2c[nH]c3ncc(-c4cnc(N5CCN(C(=O)CN6CCC(c7ccc8c(c7)n(C)c(=O)n8C7CCC(=O)NC7=O)CC6)CC5)nc4)cc23)c1F` (stereo not shown) [Example 33, 1-(2,6-dioxo-3-piperidyl)-5-[1-[2-[4-[5-[3-[3-[[ethyl(methyl)sulfamoyl]amino]-2,6-difluoro-benzoyl]-1H-pyrrolo[2,3-b]pyridin-5-yl]pyrimidin-2-yl]piperazin-1-yl]-2-oxo-ethyl]-4-piperidyl]-3-methyl-2-oxo-benzimidazole], it took 2.51 nM to reach half-maximal degradation (DC50) and the Emax amounted to 19.2%.
